The record followed here is US11911404B2, “Fucosylation and immune surveillance in melanoma” (H. LEE MOFFITT CANCER CENTER AND RESEARCH INSTITUTE, INC., priority 2017, dated 2024).

One test deals with RPS3. As to the kind of experiment: RPS3 fucosylation by lectin pull-down after cellular stressors. The test is classed as cell-based, human. The settings on record: melanoma cells treated 24-48 h, lectin PD (FIG. 12). The text has this: Specifically, (11A) RPS3 level in increased in melanoma cells relative to primary melanocytes (HEMN, human epidermal melanocytes). (11B) RPS3 is increased in melanoma through progression in human samples by TMA. TMA stained and analyzed by AQUA at Moffitt Cancer Center Department of Clinical Testing Development Core Facility. (11C) Nuclear RPS3 level increases with stage in matched primary and metastatic (MET) samples relative to HEMN cells (cell fractions analyzed by western blot [left]; cells analyzed by immunofluorescence [right]). (11D) Expression of RPS3-mDDK in vertical growth phase cells confers behavior associated with metastatic disease. Increased anchorage-independent growth [left], increased motility [right]. It was noted that Fucosylated RPS3 level increases in response to cellular stressors. Melanoma cells treated for 24-48 h with serum deprivation (SD), thapsigargin (T, thap) or mutant BRAF-inhibitor (Plexxikon, PLX) and assayed for RPS3 fucosylation by lectin PD (FIG. 12).

For another test, the system named is HLA-DRB1. As to the kind of experiment: Flow cytometry of cell surface presentation, normalized to PKH26. The test is classed as cell-based, human. The settings on record: WM793 cells, L-fucose treatment (FIG. 16B). The procedure:
[…] Stained cells were subjected to flow cytometric analyses and quantitation of protein signal/PKH26 signal to quantitate protein per relatice surface area.
FIGS. 16A and 16B show HLA-DRB1 is fucosylated on N48, and fucosylation promotes its cell surface presentation. […] AAL or HLA-DRB1 signals were normalized to PKH26 (total membrane stain).
To determine molecular mechanisms underlying the effects of fucosylation, a click-chemistry-based proteomic screen was performed to identify all fucosylated proteins in melanoma cells. 2 fucosylated immunomodulatory proteins, HLA-A and HLA-DRB1, were identified in melanoma cells. Fucose-binding lectin pulldown and immunoblot analysis confirmed the i) the expression and ii) the fucosylation of these 2 HLA proteins in melanoma cells, and further, indicate that their fucosylation is reduced when comparing patient-matched primary vs. metastatic cell lines (FIGS. 6A & 6C). The proximity ligation analysis technique, a cutting edge technique conventionally implemented to visualize 2 directly interacting proteins or post-translationally modified species of specific proteins when antibodies for the modifications are available (e.g., phosphorylated Tyr using an anti-phospho-Tyr antibody). […]

The test system of test [1] is SW1 mouse melanoma. Kind of test: Growth of control, H2K1- or IEβ-knocked down SW1 tumors in mice fed ±100 mM L-fucose water. The test is classed as in vivo. The text has this: N=7 mice/condition. •:p<0.01. […] (*initiate L-fucose).
(§1) Fucosylation of HLA-DRB1 occurs on amino acid N48 (mutation to G abolishes interaction with fucose-binding AAL lectin) (FIG. 16A). Increasing fucosylation (L-fucose treatment) promotes cell surface abundance of HLA-DRB1 (which is expected to increase CD4^+ T cell activation) (FIG. 16B). […] A lectin-mediated proximity ligation technique was developed to visualize fucosylated HLA-DRB1 in cells and tissues (FIG. 18).

Test [2] concerns SW1 mouse melanoma tumors. Kind of test: Flow cytometric analysis of tumor-infiltrating lymphocytes in SW1 tumors. It is filed as in vivo. The settings on record: for tumor-infiltrating CD4+ and CD8+ T cells: dietary fucose vs control diet. The procedure: (§2) To determine which immune cell populations were affected by L-fucose, another mouse melanoma model treated with control or L-fucose-supplemented water was used. First, 1.25×10^6 SW1 mouse melanoma cells were injected into the back right flanks of the mice and allowed the tumors to grow to 150 mm^3. At 150 mm^3 (14 days), 100 mM L-fucose was administered via the drinking water to half of the mice. Tumor growth was monitored (FIGS. 3A and 3B). Total and specific subpopulations of tumor-infiltrating lymphocytes were assessed by cell flow cytometric analysis (FIGS. 3C and 3D). Assessed populations included F4/80 (macrophage)-, Gr-1 (MDSCs)-, Cd11c (Dendritic cells)-, and DX5 (NK cells)-positive cells. For T-cells, we probed for CD3 (general T-cell marker) and further for CD4 and CD8 (for those T cell subpopulations). Of the CD4-positive cells, CD25 positive cells was used to elucidate the T regulatory cells. […] Both CD4 and CD8 positive T cells (CD3+ cells) increased in response to fucose. However, myeloid derived suppressor cells (MDSCs) decreased in response to dietary fucose supplementation.
This SW1 melanoma tumor/C3H mouse isogenic model was recapitulated to profile—in detail—tumor-infiltrating immune populations. >65% reduced tumor growth was observed during dietary L-fucose supplementation (FIG. 4A). […] Although most tumor-suppressive immune cell types were increased in the fucosylation-high, smaller tumors, tumor-infiltrating CD4+ and CD8+ T cells were most increased-doubled-in these tumors compared to control diet tumors (FIG. 4B, left and right). […] The presence and cytolytic activity of CD4+ T cells in tumors has been correlated with better patient survival rates and increased responsiveness to immunotherapies, respectively.
On the technique in general: In flow cytometry, cells or beads pass a laser one at a time.

The next test relates to mouse melanoma model. Kind of test: Mouse melanoma model, dietary fucose supplementation: tumor growth and metastasis. It is filed as in vivo. The procedure:
(§3) To determine whether dietary or genetic modulation of fucosylation affects tumor growth and metastasis, we previously studied a mouse melanoma model in which tumor fucosylation was increased either by dietary supplementation (FIG. 2A) with 100 mM fucose or by overexpressing mouse FUK (FIG. 2B). […] To determine whether fucosylation affects tumor infiltration by immune cells, Immunofluorescent staining analysis of CD45 (general leukocyte marker, red) and DAPI (blue) was performed (FIG. 2C). To determine whether fucosylation affects tumor infiltration by NK cells, immunofluorescent staining analysis for DX5 (an NK cell marker, red) and DAPI (blue) was performed (FIG. 2D). Both NK cells and CD4+ T cells were elevated in samples from fucose supplemented mice.

The subject of a further test is melanoma tumors. As to the kind of experiment: Immunofluorescent staining of tumors for immune cell infiltration (CD45, DX5). The settings on record: for infiltration of tumors by CD45+ immune cells (leukocytes) and NK cells: dietary fucose supplementation. The test is classed as in vivo, mouse. The procedure: as §3
In test [3] the test system is SW1 mouse melanoma. As to the kind of experiment: SW1 tumor growth in mice fed ±L-fucose and treated with anti-CTLA4 or anti-PD1. It is filed as in vivo. The settings on record: SW1/C3H/HeJ model, oral 100 mM L-fucose from day 14; antibodies 20 mg/kg twice weekly. The procedure: SW1 tumor growth curves in mice fed±100 mM L-fucose treated with either control (PBS) or […] (17A) or α-PD1 (17B). Combinations are color-coded as indicated. N=8 mice per condition. L-fucose was administered in the water starting on day 14 (refreshed twice weekly); α-CTLA4 or α-PD1 was administered (20 mg/kg each) twice weekly starting day 14. Compared with PBS control: #: p<0.001; *: p<0.05:
as §1

Another test has as its system 1205Lu melanoma cells. Kind of test: LDH-release cytotoxicity assay, NK cell co-culture with pre-treated melanoma cells. The settings on record: 1205Lu cells pre-treated with 250 μM, 8 h co-culture. It is filed as cell-based, human. The procedure: After 8 h, LDH levels released in the media were measured. *=p 0.02; •=p<0.001. FIGS. 5C and 5D show Immunoblot analysis using AAL lectin (another fucose-binding lectin) was performed to confirm the effects of FUTi (C) or L-fucose (D) on 1205Lu cells (96 h treatment). (•: p-value≥0.02)(*: p-value≥0.002).
The possibility that tumor fucosylation can directly activate the tumor cell-killing activity of NK cells was explored. To assay for this possibility, a lactate dehydrogenase (LDH)-release-based assay was used in which the fucosylation of LU1205 melanoma cells was modulated prior to co-culture with NK cells. Specifically, primary NK cells isolates (5A) or immortalized NK92 cell line (5B) were co-cultured with 1205Lu melanoma cells that were pre-treated with DMSO, 250 μM pan-fucosyltransferase inhibitor (FUTi), or 250 μM L-fucose for 8 hours. Non-radioactive LDH-release cytotoxicity assay was performed to measure extent of NK cell-mediated killing. […] (•: p-value≥0.02) (*: p-value≥0.002).

A further test concerns SW1 mouse melanoma cells. Kind of test: SW1 mouse melanoma tumor growth in C3H mice fed control or L-fucose water, with or without CD4+/CD8+ T cell depletion. The test is classed as in vivo. The procedure: as §2
This SW1 melanoma tumor/C3H mouse isogenic model was recapitulated to profile—in detail—tumor-infiltrating immune populations. >65% reduced tumor growth was observed during dietary L-fucose supplementation (FIG. 4A). […]

Test [4] deals with SW1 mouse melanoma tumors. Kind of test: Flow cytometric analysis of tumor-infiltrating lymphocytes in SW1 tumors. The settings on record: L-fucose treatment, CD4+ T cell-depleted mice (FIG. 4D). It is filed as in vivo.

“Also recorded” adds a separate entry of the source. Where only a bound is given, the exact number is not on record here.

Regarding `C/C=C(/C)C(=O)O[C@H]1C(C)=C2[C@H]([C@@H]1OC(=O)CCCCCCC)[C@@](C)(OC(C)=O)C[C@H](OC(=O)CCC)[C@@]1(O)[C@H]2OC(=O)[C@@]1(C)O` [thapsigargin], the “fucosylated RPS3 level” value in the test with RPS3 is “increases”.
In the case of `C[C@H](O)[C@@H](O)[C@@H](O)[C@H](O)C=O` [L-fucose], the “cell surface abundance of HLA-DRB1” value in the test with HLA-DRB1 is listed as “promotes”. In addition, the “difference in ±L-fuc tumor growth curves in H2K1 knocked-down tumors” value with SW1 mouse melanoma [1] (shH2K1, ±100 mM L-fucose water) is recorded as “not significant”. Besides, in the test on SW1 mouse melanoma [1] (shIEβ vs control shRNA (SCR), ±100 mM L-fucose water), the “L-fucose-triggered tumor suppression in IEβ (HLA-DRB1 ortholog) knocked-down tumors” value is on record as “abrogates; also recorded: not significant”. Besides, the “increase of NK cells, T cells (CD4+ and CD8+), dendritic cells and macrophage” value in [2] (administration of fucose) is 10-50 fold. The “overall immune infiltration of tumors” value in test [2] (dietary fucose supplementation, 100 mM in drinking water) was “increases”. Further, in test [2] (dietary fucose supplementation, listed as fucose), the “myeloid derived suppressor cells (MDSCs) in tumors” value was “decrease”. Moreover, the “tumor-infiltrating CD4+ and CD8+ T cells” value is recorded as “doubled” in test [2] and “increase” in [2] (listed as fucose). The “infiltrating immune cells per gram of tumor vs control diet” value in test [2] (tumors from L-fucose-supplemented mice) is reported as 10-50 fold. Also, the “reduction in tumor growth” value with mouse melanoma model (L-fucose supplementation, earlier model) is listed as > 50%. Moreover, the “block of tumor growth and metastasis” value in the test with mouse melanoma model (dietary L-fucose supplementation, mouse models) is listed as > 50%. Further, the tumor suppression result in the test with mouse melanoma model (dietary supplementation with 100 mM fucose (FIG. 2A)) is recorded as “increased tumor suppression”. Moreover, the figures for the “infiltration of tumors by CD45+ immune cells (leukocytes) and NK cells” value in the test with melanoma tumors and in the test with melanoma tumors (listed as fucose) were “significant increases” and “increased”, respectively. In addition, the “NK cells and CD4+ T cells in tumor samples” value in the test on melanoma tumors (fucose supplemented mice, immunofluorescence (FIGS. 2C, 2D)) is given as “elevated”. The “suppression of melanoma growth compared with checkpoint antibodies” value in the test with SW1 mouse melanoma [3] is on record as “more significantly than anti-CTLA4 or anti-PD1 alone; also recorded: more tumor suppressive than α-CTLA4 or α-PD1 alone”. Besides, the “NK cell-mediated tumor-cell killing (LDH release), immortalized human NK cells” value with 1205Lu melanoma cells is “sufficient to induce the tumor-cell killing activity”. In addition, the “NK cell-mediated tumor-cell killing (LDH release), primary human NK cells” value in the test with 1205Lu melanoma cells was “sufficient to induce the tumor-cell killing activity”. Also, in the test with SW1 mouse melanoma cells (CD4+ T cell-immunodepleted mice (FIG. 4C left)), the “L-fucose-triggered tumor suppression after loss of CD4+ T cells” value is “abrogated tumor suppression”. In addition, the reduced tumor growth in the test on SW1 mouse melanoma cells (SW1/C3H model, dietary 100 mM L-fucose in water, 45 days (FIG. 4A)) was > 65%. For the same molecule, in [4], the “numbers of intratumoral CD8+ T cells, CD11c+ dendritic cells and NK cells” value was “reduced numbers”.
